Assays:
[1] = biological target: T1, RXFP4 (Homo sapiens, UniProt Q8TDU9); assay: NanoBRET screen HiBiT-RXFP4 in HEK293; format: binding
T1 construct: purchased Promega (in-house HiBiT-GPCR construct library, NanoBRET)
Protocol: (§1) Each tracer candidate was screened across the entire library of HiBiT-GPCR constructs using NanoBRET as the detection modality. As depicted in Figure 4A, the specificity of interactions was evaluated through decrease in BRET due to competitive displacement of a bound tracer by excess parental compound. Each tracer was analyzed for binding to each HiBiT-GPCR fusion in the absence and in the presence of competing parental compound. Briefly, HEK293 cells were transfected with HiBiT-GPCR constructs diluted into promoterless DNA to reduce expression and maximize translocation to the cell surface. Each tracer candidate was then screened at concentrations of 1 μM and 0.1 μM across cells expressing these fusions. Cells were treated for 1.5 h with tracer either alone or in the presence of 20 μM competing parental compound (i.e., control). BRET was measured upon addition of purified LgBiT and subsequent complementation with HiBiT genetically fused to a GPCR. The specificity of interactions was assessed through a decrease in BRET signal due to competitive displacement of the bound tracer. To further gauge the robustness of these interactions, the fold response over the control (i.e., BRETtracer/BRETcontrol) was calculated. We chose a 1.5-fold response, which translates to ≥7-fold signal over noise as the minimal threshold required to score an interaction as positive. […]. Below we highlight the screening results obtained for our exemplary fluorescent tracers based on Clozapine, Amitriptyline and AZD1283.
(§2) HiBiT-GPCR DNA constructs were diluted in 10 mM Tris pH 8 to a final concentration of 0.01 μg/μL, arrayed in 96-well plates and stored at −20 °C. For transfection, HEK293 cells were suspended in Opti-MEM (without phenol red) supplemented with 2% fetal bovine serum (Seradigm) and 100 units/mL penicillin–streptomycin (Gibco) at a final concentration of 220,000 cells/mL and dispensed into white 96-well plates at 90 μL/well. Subsequent transfections and screens were carried using an Agilent Bravo Automated Liquid Handling Platform. First, the 96-well HiBiT DNA arrays were diluted 25-fold in Opti-MEM (without serum or phenol red) to a final concentration of 0.0004 μg/μL and 20 μL of the diluted DNAs were transferred into new 96-well plates. Next, promoterless carrier DNA (1 μg/μL) was diluted 25-fold (0.04 μg/μL) and then dispensed into the diluted arrays at 20 μL/well. Following brief mixing, Viafect transfection reagent (Promega) diluted 16-fold into Opti-MEM was dispensed into the plates at 40 μL/well. After mixing by pipetting, plates were incubated for 10 min on the pipetting station deck. The DNA-transfection reagent complexes were then added to plates containing cells. To facilitate the screen, 10 μL of DNA-transfection reagent complexes were added in duplicates to the top 4 and bottom 4 rows, resulting in two identical 48-well arrays per plate. Plates with transfected cells were incubated for 18–20 h at 37 °C/5% CO2. A screen of each tracer across the entire library using two different concentrations requires duplicate plates of transfected cells. Depending on the number of tracers being screened, transfections can be scaled up using the same ratios. The next day, for each tracer, four 20× screening solutions in tracer dilution buffer (Promega) were prepared: two duplicates at final concentration of 20 μM and two duplicates at a final concentration of 2 μM. A competing unmodified compound was added to one of each duplicate at a final concentration of 400 μM. The four resulting solutions were diluted 4-fold in Opti-MEM without serum or phenol red to generate 5× solutions (5 µM and 0.5 µM tracer +/− 100 μM competing compound). To screen the library, a BioTek MultiFlo FX liquid dispenser was used to dispense 22.5 µL of tracer solution to the top 4 rows and 22.5 µL tracer + competing compound solution to the 4 bottom rows. Plates were briefly mixed on an orbital shaker and incubated for 1.5 h at room temperature. […]

[2] = biological target: T2, C5AR2 (Homo sapiens, UniProt Q9P296); assay: NanoBRET screen HiBiT-C5AR2 in HEK293; format: binding
T2 construct: purchased Promega (in-house HiBiT-GPCR construct library, NanoBRET)
Protocol: as §1, §2

T2 sequence (Q9P296 whole entry): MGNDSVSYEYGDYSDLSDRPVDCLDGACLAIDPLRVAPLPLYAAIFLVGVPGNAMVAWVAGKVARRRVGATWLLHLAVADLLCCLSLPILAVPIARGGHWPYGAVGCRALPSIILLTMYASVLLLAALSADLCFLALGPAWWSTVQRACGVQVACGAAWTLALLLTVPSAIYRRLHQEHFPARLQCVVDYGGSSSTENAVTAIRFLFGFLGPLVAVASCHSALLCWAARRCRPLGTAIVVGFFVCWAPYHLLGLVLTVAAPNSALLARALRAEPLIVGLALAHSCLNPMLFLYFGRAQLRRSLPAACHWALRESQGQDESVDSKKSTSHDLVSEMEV
T1 sequence (Q8TDU9 whole entry): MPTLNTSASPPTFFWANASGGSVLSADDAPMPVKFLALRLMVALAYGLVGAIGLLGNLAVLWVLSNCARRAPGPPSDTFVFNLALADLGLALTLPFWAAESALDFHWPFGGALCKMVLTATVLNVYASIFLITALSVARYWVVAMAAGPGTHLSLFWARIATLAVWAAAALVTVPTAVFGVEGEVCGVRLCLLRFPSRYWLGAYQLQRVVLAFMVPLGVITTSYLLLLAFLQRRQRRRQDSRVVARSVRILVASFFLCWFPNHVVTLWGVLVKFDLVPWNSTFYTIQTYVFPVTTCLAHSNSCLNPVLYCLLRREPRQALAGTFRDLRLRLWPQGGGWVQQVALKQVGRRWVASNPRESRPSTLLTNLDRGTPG

CN(C)CCC=C1c2ccccc2CCc2ccc(C(=O)NCCNC(=O)CCOCCOCCOCCOCCNC(=O)CCc3ccc4n3[B-](F)(F)[N+]3=C(c5ccc[nH]5)C=CC3=C4)cc21 [Amitriptyline-a-2-NB590]
NanoBRET Fold Response ([1]; tracer at 0.1μM): 1.05
NanoBRET Fold Response ([1]; tracer at 1μM): 1.03
NanoBRET Fold Response ([2]; tracer at 0.1μM): 1.11
NanoBRET Fold Response ([2]; tracer at 1μM): 1.01

CN(C)CCC=C1c2ccccc2CCc2ccc(C(=O)NCCNC(=O)CCOCCOCCOCCOCCNC(=O)CCc3ccc4n3[B-](F)(F)[N+]3=C(c5ccc[nH]5)C=CC3=C4)cc21 [Amitriptyline-b-2-NB590]
NanoBRET Fold Response ([1]; tracer at 0.1μM, listed as amitriptyline-b-2-NB590): 1.07
NanoBRET Fold Response ([1]; tracer at 1μM, listed as amitriptyline-b-2-NB590): 0.89

CN(CCC=C1c2ccccc2CCc2ccccc21)C(=O)CCOCCOCCOCCOCCNC(=O)CCc1ccc2n1[B-](F)(F)[N+]1=C(c3ccc[nH]3)C=CC1=C2 [Amitriptyline-e-2-NB590]
NanoBRET Fold Response ([2]; tracer at 1μM): 1.01

CN1CCN(C2=Nc3cc(Cl)ccc3Nc3ccc(CNC(=O)CCOCCOCCOCCOCCNC(=O)CCc4ccc5n4[B-](F)(F)[N+]4=C(c6ccc[nH]6)C=CC4=C5)cc32)CC1 [Clozapine-b-2-NB590]
NanoBRET Fold Response ([1]; RXFP4, 0.1μM tracer): 0.97
NanoBRET Fold Response ([1]; RXFP4, 1μM tracer): 1.01
NanoBRET Fold Response ([2]; C5AR2, 0.1μM tracer): 0.99
NanoBRET Fold Response ([2]; C5AR2, 1μM tracer): 1.01

CN1CCN(C2=Nc3cc(Cl)ccc3N(CC(=O)NCCOCCOCCOCCOCCNC(=O)CCc3ccc4n3[B-](F)(F)[N+]3=C(c5ccc[nH]5)C=CC3=C4)c3ccccc32)CC1 [Clozapine-c-2-NB590]
NanoBRET Fold Response ([1]; RXFP4, 0.1μM tracer): 0.96
NanoBRET Fold Response ([1]; RXFP4, 1μM tracer): 1.04
NanoBRET Fold Response ([2]; C5AR2, 0.1μM tracer): 0.99
NanoBRET Fold Response ([2]; C5AR2, 1μM tracer): 1.00

O=C(CCc1ccc2n1[B-](F)(F)[N+]1=C(c3ccc[nH]3)C=CC1=C2)NCc1ccc(C(=O)NCCOCCC(=O)N[C@@H]2CC[C@@]3(O)[C@H]4Cc5ccc(O)c6c5[C@@]3(CCN4CC3CC3)[C@H]2O6)cc1 [Naltrexone-3-NB590]
NanoBRET Fold Response ([1]; RXFP4, tracer 0.1μM): 0.98
NanoBRET Fold Response ([1]; RXFP4, tracer 1μM): 0.98
NanoBRET Fold Response ([2]; C5AR2, tracer 0.1μM): 0.95
NanoBRET Fold Response ([2]; C5AR2, tracer 1μM): 1.01

Cc1cc2c(s1)Nc1ccccc1N=C2N1CCN(CCCNC(=O)CCOCCOCCOCCOCCNC(=O)CCc2ccc3n2[B-](F)(F)[N+]2=C(c4ccc[nH]4)C=CC2=C3)CC1 [Olanzapine-a-2-NB590]
NanoBRET Fold Response ([1]; RXFP4, tracer 0.1μM): 0.95
NanoBRET Fold Response ([1]; RXFP4, tracer 1μM): 0.91
NanoBRET Fold Response ([2]; C5AR2, tracer 0.1μM): 0.95
NanoBRET Fold Response ([2]; C5AR2, tracer 1μM): 0.97

O=C(CCc1ccc2n1[B-](F)(F)[N+]1=C(c3ccc[nH]3)C=CC1=C2)NCc1ccc(C(=O)NCCOCCOCCNCC(O)COc2cccc3ccccc23)cc1 (centres unmarked) [Propranolol-3-NB590]
NanoBRET Fold Response ([1]; RXFP4, 0.1μM): 1.02
NanoBRET Fold Response ([1]; RXFP4, 1μM): 1.05
NanoBRET Fold Response ([2]; C5AR2, 0.1μM): 1.00
NanoBRET Fold Response ([2]; C5AR2, 1μM): 1.01

O=C(CCc1ccc2n1[B-](F)(F)[N+]1=C(c3ccc[nH]3)C=CC1=C2)NCCOCCOCCNC(=O)OCCOCCN1CCN(C2=Nc3ccccc3Sc3ccccc32)CC1 [Quetiapine-a-2-NB590]
NanoBRET Fold Response ([1]; RXFP4, tracer 0.1μM): 1.02
NanoBRET Fold Response ([1]; RXFP4, tracer 1μM): 0.68
NanoBRET Fold Response ([2]; C5AR2, tracer 0.1μM): 1.04
NanoBRET Fold Response ([2]; C5AR2, tracer 1μM): 0.77

Cc1nc2n(c(=O)c1CCN1CCC(c3noc4cc(F)ccc34)CC1)CCCC2OC(=O)NCCOCCOCCOCCOCCNC(=O)CCc1ccc2n1[B-](F)(F)[N+]1=C(c3ccc[nH]3)C=CC1=C2 (centres unmarked) [Risperidone-2-NB590]
NanoBRET Fold Response ([1]; RXFP4, tracer 0.1μM): 0.96
NanoBRET Fold Response ([1]; RXFP4, tracer 1μM): 1.10
NanoBRET Fold Response ([2]; C5AR2, tracer 0.1μM): 1.06
NanoBRET Fold Response ([2]; C5AR2, tracer 1μM): 1.07
